Laboratory results taken from patent US20100256148A1, “USE OF CFMS INHIBITOR FOR TREATING OR PREVENTING BONE CANCER AND THE BONE LOSS AND BONE PAIN ASSOCIATED WITH BONE CANCER” (priority 2007, published 2010).
Counter-ions that a name gives are not always drawn. Like-named read-outs stand apart in the source and are kept apart here. Marks after values point to notes of the source that are not given here.

Assays:
MRMT-1 cells = assay: Tactile (mechanical) allodynia in the MRMT-1 model; assay type: in vivo, rat
Method: Rat MRMT-1 bone metastasis model. Inoculation of rat mammary MRMT-1 adenocarcinoma cells into tibiae has been described as a bone metastasis model (Medhurst S J, et al., Pain 2002; 96:129-40. An adaptation of the model (Roudier M P, et al., Clin Exp Metastasis 2006, 23:167-75) was performed by MDS Pharma Services (Bothel, Wash.). Female Sprague-Dawley rats (Harlan Sprague Dawley, Inc., Indianapolis, Ind.) approximately 125-150 grams were acclimated one week. The animals were anesthetized with ketamine/xylazine, and the right leg area was shaved and scrubbed with chlorhexadine and 70% ethanol (SOP-SUR026). A 1-cm rostral-caudal incision was made in the skin over the top half of the tibia. […] Microradiographs were scored for tumor-induced osteolysis as follows: 0, no signs of destruction; 1, one to three small radiolucent lesions; 2, three to six lesions and loss of medullary bone; 3, loss of medullary bone and erosion of cortical bone; 4, full thickness uni-cortical bone loss; 5, full thickness bi-cortical bone loss and/or displaced skeletal fracture. […] For each tibia, the numbers of tumor-associated TRAP^+ osteoclasts were counted in the three 200×-fields with highest osteoclast frequency. […]
Pain Behavioral Assessments. […] The behavioral test for tactile allodynia, measured prior to surgery, was used for randomization of animals to the treatment groups. […]

[1] = system: NCTC 2472 osteolytic sarcoma cells; assay: 2472 sarcoma model of secondary bone tumor: osteolysis and histology; assay type: in vivo, mouse; settings: for Bone erosion score (visual, scale 0-5, microradiographs): Day 15
Method: (§1) 2472 sarcoma model of secondary bone tumor pain and osteolysis. Experiments were performed on adult male C3H/HeJ mice (Jackson Laboratories, Bar Harbor, Me., USA), approximately 7-8 weeks old, weighing 25-30 g at the time of tumor cell injection. An arthrotomy was performed following induction of general anesthesia with ketamine/xylazine (2:1 ratio; intramuscular (i.m.)). A needle was inserted into the intramedullary canal to create a pathway for the sarcoma cells. A depression was then made using a pneumatic dental high speed handpiece. Mice were injected with Hanks buffered saline (HBSS) (20 ul, Sigma, St. Louis, Mo., USA) or HBSS containing the 2472 sarcoma line (ATCC, Rockville, Md., USA). The injection site is sealed with a dental amalgam plug to confine the cells within the intramedullary canal and followed by irrigation with sterile water (hypotonic solution). Finally, incision closure is achieved with a wound clip. Clips are removed at day 5 as not to interfere with behavioral testing.
The extent of tumor-induced bone reorganization (osteolysis) was radiologically assessed using Faxitron analysis (Specimen Radiography System Model MX-20, Faxitron X-ray Corporation, Wheeling, Ill., and Kodak film Min-R 2000, Rochester, N.Y.). Radiographs of tumor-bearing femora were scored on a 0 to 5 scale: (0) normal bone with no signs of destruction; (1) small pits of bone destruction (1-3 in number); (2) increased pitted appearance (3-6) and loss of medullary bone; (3) loss of medullary bone and erosion of cortical bone; (4) full thickness unicortical bone loss; (5) full thickness bicortical bone loss and displaced skeletal fracture.

[2] = system: NCTC 2472 osteolytic sarcoma cells; assay: 2472 sarcoma model: pain-related behaviors; assay type: in vivo, mouse
Method: as §1
A variety of behavioral measurements were used to assess the extent of bone cancer pain.
Spontaneous nocifensive behaviors: The number of spontaneous flinches and guarding, representative of nociceptive behavior, were recorded during a 2-minute observation period. Flinches are defined as number of times the animal raises its hindpaw and guarding as the amount of time animals hold the hindpaw aloft while stationary.
Palpation-induced nocifensive behaviors: Mechanical allodynia at the knee joint was evaluated by normally non-noxious palpation of the distal femur every second for 2 minutes. Following the 2-minute palpation, the mice were placed in the observation box and their palpation-induced guarding and flinching behavior was measured for an additional 2 minutes, as discussed above.

[3] = system: MRMT-1 rat mammary gland carcinoma cells; assay: Rat MRMT-1 bone metastasis model (osteolysis, osteoclasts, tumor); assay type: in vivo; set-up: key to Microradiograph score (five point visual score): 0 = no destruction to 5 = bi-cortical bone loss/fracture; key to Trabecular bone vol score (three point visual score): 0 = none, 1 = 1-10%, 2 = >10-<40% (normal), 3 = >40% area; key to Tumor vol score (three point visual score): 0 = none, 1 = small, 2 = moderate, 3 = large tumor; settings: for Microradiograph score (five point visual score) / Osteoclast Counts (TRAP positive cells, mean of three 200x fields) / Tumor vol score (three point visual score) / Trabecular bone vol score (three point visual score): Day 3 to Day 17, mean ± SEM
Method: Rat MRMT-1 bone metastasis model. Inoculation of rat mammary MRMT-1 adenocarcinoma cells into tibiae has been described as a bone metastasis model (Medhurst S J, et al., Pain 2002; 96:129-40. An adaptation of the model (Roudier M P, et al., Clin Exp Metastasis 2006, 23:167-75) was performed by MDS Pharma Services (Bothel, Wash.). Female Sprague-Dawley rats (Harlan Sprague Dawley, Inc., Indianapolis, Ind.) approximately 125-150 grams were acclimated one week. The animals were anesthetized with ketamine/xylazine, and the right leg area was shaved and scrubbed with chlorhexadine and 70% ethanol (SOP-SUR026). A 1-cm rostral-caudal incision was made in the skin over the top half of the tibia. Blunt-dissection exposed the proximal tibia, and a Hamilton syringe guided by a 23-gauge needle was used to inject 3 μl of saline (sham) or saline containing 3×10^4 MRMT-1 cells into the medullary cavity of the right proximal tibia of each rat. The injection site was closed with bone wax. The wound was closed with surgical staples. […] To serve as a control, a fourth group was dosed QOD sc with 0.03 mg/kg zoledronate in saline. Eight rats were dosed per group. Rats were sacrificed on Day 17. Right tibiae were excised, together with surrounding tumor tissue, and microradiographs prepared using an MX-20 x-ray system (Faxitron X-ray Corporation, Wheeling, Ill.). Microradiographs were scored for tumor-induced osteolysis as follows: 0, no signs of destruction; 1, one to three small radiolucent lesions; 2, three to six lesions and loss of medullary bone; 3, loss of medullary bone and erosion of cortical bone; 4, full thickness uni-cortical bone loss; 5, full thickness bi-cortical bone loss and/or displaced skeletal fracture. The radiographs were used to select representative bones from each group for microCT imaging. All tibia were fixed in 10% neutral buffered formalin for two days, decalcified and sectioned for histopathological evaluation. TRAP staining was performed as described previously in Liu, C., et al., 1987. […] For each tibia, the numbers of tumor-associated TRAP^+ osteoclasts were counted in the three 200×-fields with highest osteoclast frequency. A semi-quantitative three-point scoring method was used to compare treatment groups with regards to trabecular bone volume (3, >40 area; 2, >10%<40% area (normal); 1, 1-10% area; 0, none) and tumor volume (3, large; 2, moderate; 1, small; 0, none).

H460, MDA-MB-231, A375 = assay: Growth factor-independent proliferation of adenocarcinoma cells; assay type: cell-based, human
[4] = system: NCI-H460 human lung carcinoma cells; settings: for final tumor weights reduced by: at study termination
[5] = 60 mg/kg oral twice daily, tumor mice
[6] = 120 mg/kg oral twice daily, sham mice
[7] = 120 mg/kg oral twice daily, tumor mice
[8] = JNJ-141 20 mpk oral twice daily
[9] = JNJ-141 60 mpk oral twice daily
[10] = 25 mg/kg oral twice daily, mean ± SEM
[11] = 50 mg/kg oral twice daily, mean ± SEM
[12] = 100 mg/kg oral twice daily, mean ± SEM

## CN1CC[C@]23c4c5ccc(O)c4O[C@H]2[C@@H](O)C=C[C@H]3[C@H]1C5 [morphine]
MRMT-1 cells; morphine, from the 2nd time point forward
  mechanical allodynia of affected animals: reversed allodynia

## CN(C)CC(=O)N1CCC(c2ccc(NC(=O)c3nc(C#N)c[nH]3)c(C3=CCCCC3)c2)CC1 [JNJ-141, 4-cyano-N-[2-(1-cyclohexen-1-yl)-4-[1-[(dimethylamino)acetyl]-4-piperidinyl]phenyl]-1H-imidazole-2-carboxamide monohydrochloride]
[1]; 60 mg/kg oral twice daily, NCTC 2472 tumor mice
  Bone erosion score (visual, scale 0-5, microradiographs): 3.5
[1]; [5]
  Macrophage Counts (CD68 positive cells): 84** Counts per high powered field
  Osteoclast Counts (TRACP positive cells): 79** Counts per high powered field
  Tumor area % marrow: 100%
[1]; 120 mg/kg oral twice daily, NCTC 2472 tumor mice
  Bone erosion score (visual, scale 0-5, microradiographs): 2.0**
[1]; 120 mg/kg oral twice daily, sham (saline) mice
  Bone erosion score (visual, scale 0-5, microradiographs): 0.25
[1]; [6]
  Macrophage Counts (CD68 positive cells): 28 Counts per high powered field
  Osteoclast Counts (TRACP positive cells): 41 Counts per high powered field
[1]; [7]
  Macrophage Counts (CD68 positive cells): 140* Counts per high powered field
  Osteoclast Counts (TRACP positive cells): 147 Counts per high powered field
  Tumor area % marrow: 90%
[2]; [5]
  PIF Day 7 (palpation-induced flinches over 2 minutes): 10.3
  PIF Day 9 (palpation-induced flinches over 2 minutes): 14.3
  PIF Day 11 (palpation-induced flinches over 2 minutes): 16.3
  PIF Day 13 (palpation-induced flinches over 2 minutes): 12.7*
  PIF Day 15 (palpation-induced flinches over 2 minutes): 11.7**
  PIG Day 15 (palpation-induced guarding time over 2 minutes): 9.1* sec
  SF Day 15 (spontaneous flinches over 2 minutes): 10*
  SG Day 15 (spontaneous guarding time over 2 minutes): 7.9 s
[2]; [6]
  PIF Day 7 (palpation-induced flinches over 2 minutes): 2.5
  PIF Day 9 (palpation-induced flinches over 2 minutes): 1.3
  PIF Day 11 (palpation-induced flinches over 2 minutes): 1.3
  PIF Day 13 (palpation-induced flinches over 2 minutes): 1.8
  PIF Day 15 (palpation-induced flinches over 2 minutes): 1.8
  PIG Day 15 (palpation-induced guarding time over 2 minutes): 0.9 s
  SF Day 15 (spontaneous flinches over 2 minutes): 1.3
  SG Day 15 (spontaneous guarding time over 2 minutes): 0.6 s
[2]; [7]
  PIF Day 7 (palpation-induced flinches over 2 minutes): 9.5
  PIF Day 9 (palpation-induced flinches over 2 minutes): 7.8**
  PIF Day 11 (palpation-induced flinches over 2 minutes): 8.5**
  PIF Day 13 (palpation-induced flinches over 2 minutes): 10.3**
  PIF Day 15 (palpation-induced flinches over 2 minutes): 9.3**
  PIG Day 15 (palpation-induced guarding time over 2 minutes): 6.4** sec
  SF Day 15 (spontaneous flinches over 2 minutes): 8.5**
  SG Day 15 (spontaneous guarding time over 2 minutes): 6.1** sec
[2]; 120 mg/kg, Day 15
  palpation induced flinching reduced by: approximately 50%
[3]; [8]
  Microradiograph score (five point visual score): 0.75 ± 0.17
  Osteoclast Counts (TRAP positive cells, mean of three 200x fields): 3.7 ± 0.7
  Tumor vol score (three point visual score): 1.75 ± 0.48
[3]; JNJ-141 20 or 60 mg/kg oral twice daily
  tumor-associated osteoclasts reduced by: greater than 95%
[3]; [9]
  Microradiograph score (five point visual score): 0.83 ± 0.18
  Osteoclast Counts (TRAP positive cells, mean of three 200x fields): 2.6 ± 1.5
  Trabecular bone vol score (three point visual score): 2.33 ± 0.23
  Tumor vol score (three point visual score): 1.50 ± 0.55
H460, MDA-MB-231, A375; 5 μM, monohydrochloride
  growth factor-independent (serum-dependent) proliferation in culture: did not inhibit
H460, MDA-MB-231, A375; Homo sapiens, H460, MDA-MB-231, A375, no stimulus, determined once
  IC50: > 5 µM
[4]; 25 mg/kg oral twice daily (qd on weekends) from day 3, mean ± SEM
  Mean final tumor weight, mg: 1,257 ± 209 mg
[4]; [10]
  Macrophage density, % area (F4/80 positive, 200X-field): 4.3 ± 0.68 % area
  Microvascular density, % area (CD31 positive): 3.73 ± 0.81 % area
[4]; 25 mg/kg oral
  final tumor weights reduced by: 21%
[4]; 50 mg/kg oral twice daily (qd on weekends) from day 3, mean ± SEM
  Mean final tumor weight, mg: 1,070 ± 121 mg
[4]; [11]
  Macrophage density, % area (F4/80 positive, 200X-field): 2.6 ± 0.57 % area
  Microvascular density, % area (CD31 positive): 2.10 ± 0.57 % area
[4]; 50 mg/kg oral
  final tumor weights reduced by: 32%
[4]; 100 mg/kg oral twice daily (qd on weekends) from day 3, mean ± SEM
  Mean final tumor weight: 870 ± 94 mg
[4]; [12]
  Macrophage density, % area (F4/80 positive, 200X-field): 0.31 ± 0.14 % area
  Microvascular density, % area (CD31 positive): 1.25 ± 0.16 % area
[4]; 100 mg/kg oral
  final tumor weights reduced by: 45%
[4]; highest dose (100 mg/kg)
  reduction in tumor vascularity (vessel density): 66%

## O=P(O)(O)C(O)(Cn1ccnc1)P(=O)(O)O [zoledronate, reference compound]
[3]; treated rats, day 17
  full thickness cortical bone lesions: not observed
[3]; zoledronate 0.03 mg/kg QOD sc
  tumor-associated osteoclasts reduced by: 64%
[3]; zoledronate 0.03 mpk QOD sc
  Microradiograph score (five point visual score): 0.38 ± 0.20
  Osteoclast Counts (TRAP positive cells, mean of three 200x fields): 21.0 ± 3.2
  Trabecular bone vol score (three point visual score): 2.63 ± 0.20
  Tumor vol score (three point visual score): 1.63 ± 0.20
MRMT-1 cells; zoledronate treatment
  mechanical allodynia compared to tumor-inoculated animals: decreased allodynia compared to tumor-inoculated animals but this effect did not reach statistical significance
